# Source: the NIST ThermoML archive (doi:10.1016/j.jct.2016.06.010)
# Numbers after ± are expanded uncertainties.
# Columns and labels:
# [1] = 293.15 K; 101.33 kPa; Liquid; Vibrating tube method
# [2] = refractive index (Na D-line) (dimensionless); details: 293.15 K; 101.33 kPa; Liquid; Standard Abbe refractometry
Structure (SMILES),mass density [1],refractive index [2]
"CC12CCC(CC1)C(C)(C)O2 [1,3,3-trimethyl-2-oxabicyclo[2.2.2]octane]",924.84 ± 2 kg/m3,1.45756 ± 0.0011
CCCCO [butan-1-ol],809.75 ± 2 kg/m3,1.39911 ± 0.001
CCO [ethanol],789.38 ± 2 kg/m3,1.36134 ± 0.001
CO [methanol],791.2 ± 2 kg/m3,1.32826 ± 0.001
CCCO [propan-1-ol],803.85 ± 2 kg/m3,1.38461 ± 0.001
